# Several values for one entry are separate records, joined by “and”; a condition that tells them apart may be missing. Equal entries are not always repeated.
# How the values were obtained:
# Sprague-Dawley rats [1] = assay: ICV infusion with pancreatic insulin clamp or hyperinsulinemic clamp (Example 5); format: in vivo, rat; conditions: for peripheral glucose infusion rate: ICV, hyperinsulinemic clamp
# Procedure: Studies were conducted with 92 three-month-old male Sprague-Dawley rats (Charles River Laboratories). Rats were housed in individual cages and subjected to a standard light-dark cycle. Rats were prepared for clamps as described in FIG. 15A. Three weeks before the in vivo studies catheters were implanted in the third cerebral ventricle (Muzumdar et al. 2003). One week before clamp experiments, catheters were placed in the right internal jugular vein and left carotid artery (Liu et al. 1998).
# (§1) A primed-continuous ICV infusion of HN, F6A-HN (total dose of 20 μg), STAT-3 inhibitor (75 pmol) (Buettner et al. 2006), or aCSF was initiated at t=0 and maintained for the remainder of the experiment (FIG. 15A). Pancreatic insulin-clamp studies or euglycemic-hyperinsulinemic clamps were performed in conscious, unrestrained, catheterized mice for last 120 minutes as described previously (Bahar et al. 2006, Muzumdar et al. 2006). In the intra-venous group, HN, F6A, Colivelin, and HNGF6A were infused intravenously and hyperinsulinemic clamps were performed as described previously (Loeb et al. 2005). Estimation of glucose, glucose fluxes, insulin, FFA were done as described previously (Loeb et al. 2005). HN measurements were performed by an in-house, ELISA utilizing affinity purified humanin antibodies that recognize both human and rat humanin and has a limit of detection of 0.1 ng/ml (Hwang, and Cohen personal communication).
# 3T3L1 adipocytes = assay: Glucose transport in 3T3L1 adipocytes; format: cell-based; conditions: 3T3L1 cells, basal and insulin-stimulated
# From the text: Using the 3T3L1 adipocyte model, the effects of humanin on insulin action and glucose transport were investigated.
# [2] = test system: signaling kinases in hypothalamus and liver; assay: Western blot of other signaling in hypothalamus and liver after ICV infusion; format: in vivo, rat; conditions: ICV HN
# Procedure: The indicated tissues were homogenized in 20 mM MOPS, 2 mM EGTA, 5 mM EDTA, 30 mM sodium fluoride, 40 mM beta-glycerophosphate, 10 mM sodium pyrophosphate, 2 mM orthovanadate, 0.5% NP-40 and complete protease inhibitor cocktail (Roche, Indianapolis, Ind., USA) and centrifuged at 12,000 g for 15 min and the supernatant was harvested while carefully avoiding the lipid layer on top. Protein concentration was measured with a BCA protein quantification kit (Pierce, Rockford, Ill., USA). Protein extracts were separated on 4-12% NuPAGE (Invitrogen, Carlsbad, Calif., USA) gels and were blotted onto Immobilon FL PVDF (Millipore, Billerica, Mass., USA). […] After three washes in TBS-T and a final wash in TBS the blots were scanned using the LI-COR Odyssey (LI-COR, Lincoln, Nebr., USA) and quantified using Odyssey 2.0 software based on direct fluorescence measurement.
# For acute signaling studies, rats were injected ICV with either aCSF, 20 μg of HN or F6A (dissolved in aCSF) over 5 min, and sacrificed 30 min later. […] Samples were also obtained from these tissues at the end of the clamp and western blot analysis was performed as described previously (Muzumdar et al. 2003) The blots were scanned using the LI-COR Odyssey (LI-COR, Lincoln, Nebr., USA) and quantified using Odyssey 2.0 software based on direct fluorescence measurement. […]
# PEPCK mRNA in the liver = assay: Hepatic PEPCK mRNA by qRT-PCR at end of clamp after ICV infusion; format: in vivo, rat; conditions: ICV infusion for 6 h
# Procedure: (§2) Total RNA was extracted following Clontech's protocol. First-stranded cDNA was synthesized from 1 μg of total RNA using Superscript III (Gibco, Gaithersburg, Md.). Hepatic glucose-6-phosphatase (Glc-6-Pase) and phosphoenolpyruvate carboxykinase (PEPCK) mRNA abundance were assessed by qRT-PCR as described previously (Buettner et al., 2005). Quantification of these peptides and their copy number was normalized for GAPDH and 18S to correct for loading irregularities. The data presented are those normalized by GAPDH.
# [3] = test system: Glc-6-Pase mRNA in the liver; assay: Hepatic Glc-6-Pase mRNA by qRT-PCR at end of clamp after ICV infusion; format: in vivo, rat; conditions: ICV infusion for 6 h
# Procedure: as §2
# Sprague-Dawley rats [4] = assay: Intravenous infusion of humanin or analogs during hyperinsulinemic clamp; format: in vivo, rat
# Procedure: To study the acute effects of an infusion of IGFBP-3, two groups of awake, unstressed, chronically catheterized Sprague-Dawley rats (˜300 g) were studied for 300 min (n=3 in each group) under hyperinsulinemic clamp (as previously described). From 120 min the rats received a primed continuous infusion of humanin (0.375 mg/kg/hr) or saline (control) for an additional 2 h. Plasma samples for determination of [3H]glucose and [3H] water specific activities were obtained at 10-min intervals during the basal and clamp periods. Steady state conditions for the plasma glucose concentration and specific activity were achieved within 90 min in all the studies. Plasma samples for determination of HN, insulin and FFA concentrations were collected at 30-min intervals throughout the study. All determinations were also performed on portal vein blood obtained at the end of the experiments. The total amount of blood drawn during the entire study for various assays is ˜3 cc. After separation of plasma (subsequently used for analysis), the red blood cells were reconstituted in saline and infused back into the animal.
# To determine if peripheral infusion of the humanin analog colivelin affects insulin action, saline or colivelin (one hundredth of the dose of humanin) was infused intravenously during hyperinsulinemic clamp to two groups of rats that were matched for body weight (˜300 gm), visceral fat (˜3.5 grams), basal glucose (˜135 mg % or 7 mM). Colivelin increased hepatic insulin sensitivity by 33% while peripheral glucose uptake was unchanged (FIG. 14).
# as §1
# [5] = IV during hyperinsulinemic clamp, humanin 0.375 mg/kg/hr, colivelin one hundredth of the dose of humanin
serum concentrations of HN during ICV infusion (Sprague-Dawley rats [1]; ICV infusion),"expression of G-6Pase in the liver, ratio to GAPDH ([3]; end of clamp (Example 2), listed as HN)","levels in rat CSF after peripheral infusion, range (Sprague-Dawley rats [4]; peripherally infused humanin)","expression of G-6Pase in the liver, ratio to GAPDH ([3]; end of clamp (Example 1))",Molecule,"hepatic glucose output (Sprague-Dawley rats [1]; ICV HN 0.1 μg/kg/min, basal and high insulin clamp)",peripheral glucose infusion rate (Sprague-Dawley rats [1]),glucose transport (3T3L1 adipocytes),"liver pAKT, PGC-1b, FAS, p38, CREB, ACC vs control groups [2]",phosphorylation in other signaling kinases in the hypothalamus including AKT [2],"PEPCK mRNA in the liver, ratio to GAPDH (PEPCK mRNA in the liver; end of clamp (Example 2))","HGP / hepatic insulin action (Sprague-Dawley rats [4]; IV during hyperinsulinemic clamp, HN 0.375 mg/kg/hr, Colivelin 0.00375 mg/kg/hr)",increase in hepatic insulin sensitivity (Sprague-Dawley rats [4]; [5]),peripheral glucose uptake (Sprague-Dawley rats [4]; [5]),"PEPCK mRNA in the liver, ratio to GAPDH (PEPCK mRNA in the liver; end of clamp (Example 1))"
undetectable,0.87 ±0.37 and 0.89 ±0.28,0 to 40 ng/mL,,"CC[C@H](C)[C@H](NC(=O)[C@H](CCC(=O)O)NC(=O)[C@H](CO)NC(=O)[C@@H](NC(=O)[C@H](CC(C)C)NC(=O)[C@H](CC(C)C)NC(=O)[C@H](CC(C)C)NC(=O)[C@H](CC(C)C)NC(=O)[C@H](CS)NC(=O)[C@H](CO)NC(=O)[C@H](Cc1ccccc1)NC(=O)CNC(=O)[C@H](CCCNC(=N)N)NC(=O)[C@@H]1CCCN1C(=O)[C@H](C)NC(=O)[C@@H](N)CCSC)[C@@H](C)O)C(=O)N[C@@H](CC(=O)O)C(=O)N[C@@H](CC(C)C)C(=O)N1CCC[C@H]1C(=O)N[C@H](C(=O)N[C@@H](CCCCN)C(=O)N[C@@H](CCCNC(=N)N)C(=O)N[C@@H](CCCNC(=N)N)C(=O)N[C@@H](C)C(=O)O)C(C)C [Humanin, maprgfscll lltseidlpv krra]",significant decrease in hepatic glucose output,increased,significantly enhanced basal as well as insulin-stimulated glucose transport,no significant differences,Unchanged levels of phosphorylation,12.4 ±2.7,trend towards decreased HGP,80%,unchanged,
,,,no changes,"IGFBP-3: non glycosylated hIGFBP-3 (IGF binding protein-3), provided by Celtrix",,decrease,inhibited insulin-stimulated glucose transport,,,,,,,3.2 ±0.3

# Source: US9034825B2, “Treatment of myocardial injury with humanin analogs” (Albert Einstein College of Medicine of Yeshiva University, priority 2007, dated 2015)
